The nature of series [1]: in vitro. The conditions noted are these: African green monkey; for CC50 at 4 days: uninfected quiescent Vero-B cells.
Series [2] relates to DENV-4 strain Dak HD 34 460. In words: Antiviral activity against DENV-4 in Vero-B cells (viral RNA load by RT-qPCR). It is filed as cell-based, Dengue virus. Particulars: Dengue virus, DENV4, Vero B. Background: In qPCR the cycle at which signal appears reflects the starting amount.
Series [3] deals with DENV-3 strain H87 prototype. In words: Antiviral activity against DENV-3 in Vero-B cells (viral RNA load by RT-qPCR). It is filed as cell-based, Dengue virus. Particulars: Dengue virus, DENV3, Vero B.
Series [4] deals with DENV-1 Djibouti strain D1/H/IMTSSA/98/606. In words: Antiviral activity against DENV-1 in Vero-B cells (viral RNA load by RT-qPCR). It is filed as cell-based, Dengue virus. The conditions noted are these: Dengue virus, DENV1, Vero B.
In series [5] the test system is DENV-2 NGC. In words: Antiviral activity against DENV-2 NGC in Vero-B cells (viral RNA load by RT-qPCR). The series is classed as cell-based, Dengue virus. The conditions noted are these: Dengue virus, DENV2, Vero B, DENV-2 in Vero-B cells; inhibition of viral RNA replication by 50% (Table 3).

A word on the EC50: it is the concentration at which the effect is half-maximal. `COc1cccc(NC(C(=O)c2cn(CCO)c3ccccc23)c2ccccc2)c1` (stereo not drawn) [CPD-104]: the CC50 in series [1] worked out at 65 µM. In addition, the EC50 in series [2] is 14.9 µM; in series [3] it was 24 µM; in series [4] it was 3850 nM; in series [5], 350 nM.
On to `COc1cccc(NC(C(=O)c2nn(CCO)c3ccccc23)c2ccccc2)c1` (stereo not drawn) [CPD-303], for which, in series [1], the CC50 was determined as 71 µM. The EC50 came to 3260 nM in series [4] and 520 nM in series [5].
As for `COc1cc(CO)cc(NC(C(=O)c2nn(C)c3ccccc23)c2ccccc2)c1` (stereo not drawn) [CPD-278], the CC50 at 4 days in series [1] was more than 125 µM. The EC50 in series [2] amounted to 5.8 µM; in series [3], 13.2 µM; in series [4], 2840 nM; in series [5], 270 nM.
The like results for `COc1cc(NC(C(=O)c2c[nH]c3ccccc23)c2ccc(OC)nc2)cc(OC)c1` (stereo not drawn) [CPD-335] were, in that order, 18 µM, 2.38 µM, 0.42 µM, 320 nM and 20 nM.
In turn, `COc1cc(NC(C(=O)c2cn(CCCO)c3ccccc23)c2ccccc2)cc(OC)c1` (stereo not drawn) [CPD-210] yielded a CC50 in series [1] of 13 µM. Moreover, the values for the EC50 in series [4] and in series [5] were 1030 nM and 200 nM, respectively.
Compound `COc1cc(CO)cc(NC(C(=O)c2c[nH]c3c(C)cccc23)c2ccccc2)c1` (stereo not drawn) [CPD-318] had a CC50 at 4 days in series [1] of 54 µM. For the same compound, the EC50 in series [2] worked out at 10.8 µM; in series [3], 2.32 µM; in series [4], 220 nM; in series [5] it was 60 nM.
As to `COc1cncc(NC(C(=O)c2c[nH]c3ccc(F)cc23)c2ccc(OC)nc2)c1` (stereo not drawn) [CPD-241], the CC50 at 4 days in series [1] was 58 µM. The EC50 in series [2] was determined as 5.69 µM; in series [3], 0.62 µM; in series [4], 620 nM; in series [5], 40 nM.
Regarding `COc1cccc(NC(C(=O)c2c[nH]c3cc(Cl)ccc23)c2cc(C)on2)c1` (stereo not drawn) [CPD-116], the CC50 at 4 days in series [1] worked out at 13 µM. Moreover, the EC50 came to 9.3 µM in series [3], 4190 nM in series [4] and 140 nM in series [5].
Take `COc1cc(NC(C(=O)c2cn(CCO)c3ccccc23)c2ccccc2)cc(OC)c1` (stereo not drawn) [CPD-148]: the CC50 in series [1] is 44 µM. In addition, the EC50 in series [2] turned out to be 2.87 µM; in series [3] it was 5.54 µM; in series [4] it was 1650 nM; in series [5] it was 70 nM.
As for `COc1cc(O)cc(NC(C(=O)c2c[nH]c3ccccc23)c2ccccc2)c1` (stereo not drawn) [CPD-359], the CC50 at 4 days in series [1] was found to be 52 µM. Also, the EC50 in series [2] came to 5.48 µM; in series [5], 100 nM.
Take `COc1cc(CO)cc(NC(C(=O)c2c[nH]c3ccccc23)c2cccnc2)c1` (stereo not drawn) [CPD-282]: the CC50 at 4 days in series [1] was more than 128 µM. Besides, the EC50 was determined as 13.1 µM in series [2], 3.12 µM in series [3], 1240 nM in series [4] and 260 nM in series [5].
The compound `COc1cc(NC(C(=O)c2c[nH]c3ccc(F)cc23)c2ccccc2)cc(OCCO)c1` (stereo not drawn) [CPD-355] came in with a CC50 at 4 days in series [1] of 44 µM. The EC50 came to 6.17 µM in series [2], 0.3 µM in series [3] and 30 nM in series [5].
As to `COc1cc(CO)cc(NC(C(=O)c2cn(C)c3ccccc23)c2ccccc2)c1` (stereo not drawn) [CPD-307], in series [1], the CC50 at 4 days was more than 124 µM. The results for the EC50 in series [2], in series [4] and in series [5] were 11.5 µM, 2430 nM and 180 nM, respectively.
For the compound `COc1cccc(NC(C(=O)c2nn(C)c3ccc(F)cc23)c2ccccc2)c1` (stereo not drawn) [CPD-270], the CC50 at 4 days in series [1] is more than 128 µM. For the same compound, the EC50 is 1.87 µM in series [3], 1570 nM in series [4] and 130 nM in series [5].
As to `COc1cc(NC(C(=O)c2c[nH]c3c(C)cccc23)c2ccc(F)cc2)cc(OC)c1` (stereo not drawn) [CPD-341], in series [1], the CC50 at 4 days is 12 µM. Moreover, the results for the EC50 in series [2], in series [3] and in series [5] were 3.36 µM, 0.05 µM and 2 nM, respectively.
`COc1cccc(NC(C(=O)c2c[nH]c3ccc(CO)cc23)c2ccccc2)c1` (stereo not drawn) [CPD-219]: the CC50 at 4 days in series [1] was 86 µM. The EC50 in series [3] is 22.1 µM; in series [5] it was 520 nM.
In series [1], `COc1cccc(NC(C(=O)c2c[nH]c3ccccc23)c2cncnc2)c1` (stereo not drawn) [CPD-029] came in with a CC50 at 4 days of 65 µM. In addition, the EC50 was found to be 2820 nM in series [4] and 840 nM in series [5].
`COc1cccc(NC(C(=O)c2c[nH]c3ccccc23)c2ccccc2F)c1` (stereo not drawn) [CPD-144] displayed a CC50 at 4 days in series [1] of 20 µM. The figures for the EC50 in series [3], in series [4] and in series [5] were 3.08 µM, 2890 nM and 60 nM, respectively.
As to `COc1cc(NC(C(=O)c2c[nH]c3ccccc23)c2ccccc2)nc(OC)n1` (stereo not drawn) [CPD-087], in series [1], the CC50 at 4 days was more than 128 µM. Moreover, the EC50 in series [4] amounted to 6050 nM; in series [5], 800 nM.
As for `COc1cc(NC(C(=O)c2c[nH]c3ccccc23)c2ccccc2)c(F)c(OC)c1` (stereo not drawn) [CPD-345], the CC50 at 4 days in series [1] turned out to be 106 µM. Also, the EC50 is 2.94 µM in series [2], 1.73 µM in series [3] and 210 nM in series [5].
The like results for `COc1cc(CO)cc(NC(C(=O)c2c[nH]c3cc(F)ccc23)c2cccnc2)c1` (stereo not drawn) [CPD-344] were, in that order, 94 µM, 25.9 µM, 0.79 µM and 90 nM.
The like results for `COc1cccc(NC(C(=O)c2c[nH]c3nc(C)ccc23)c2ccccc2)c1` (stereo not drawn) [CPD-225] were, in that order, more than 134 µM, 1.16 µM, 2.99 µM and 380 nM.
Turning to `COc1cccc(NC(C(=O)c2c[nH]c3c(Cl)cccc23)c2ccc(C#N)cc2)c1` (stereo not drawn) [CPD-120], the CC50 at 4 days in series [1] was found to be 11 µM. The EC50 in series [3] is 5.18 µM; in series [4], 2310 nM; in series [5] it was 20 nM.
`COc1cccc(NC(C(=O)c2c[nH]c3c(F)cccc23)c2ccc(OC)nc2)c1` (stereo not drawn) [CPD-155] came in with a CC50 at 4 days in series [1] of 15 µM. Moreover, the EC50 was determined as 2940 nM in series [4] and 80 nM in series [5].
`COc1cccc(NC(C(=O)c2c[nH]c3ncccc23)c2ccccc2)c1` (stereo not drawn) [CPD-194] showed a CC50 at 4 days in series [1] of 61 µM. Moreover, the EC50 was 18.7 µM in series [2] and 940 nM in series [5].
`COC(=O)c1ccc2[nH]cc(C(=O)C(Nc3cccc(OC)c3)c3ccccc3)c2c1` (stereo not drawn) [CPD-142] gave a CC50 at 4 days in series [1] of 13 µM. The values for the EC50 in series [3], in series [4] and in series [5] were 3.97 µM, 1710 nM and 100 nM, respectively.
Regarding `CCOc1ccc(NC(C(=O)c2c[nH]c3ccccc23)c2ccccc2)cc1OC` (stereo not drawn) [CPD-173], the CC50 at 4 days in series [1] was 69 µM. Moreover, the EC50 turned out to be 30700 nM in series [4] and 20 nM in series [5].
`COc1cccc(NC(C(=O)c2c[nH]c3cc(N4CCOCC4)ccc23)c2ccccc2)c1` (stereo not drawn) [CPD-237]: the CC50 at 4 days in series [1] is more than 113 µM. Besides, the EC50 in series [2] stood at 8.31 µM; in series [5], 1350 nM.
As for `COc1cc(NC(C(=O)c2c[nH]c3ccccc23)c2cccnc2)cc(OCCO)c1` (stereo not drawn) [CPD-343], the CC50 at 4 days in series [1] is more than 119 µM. For the same compound, the EC50 is 3.11 µM in series [3] and 190 nM in series [5].
Take `COc1cccc(NC(C(=O)c2c[nH]c3cc(F)ccc23)c2cnc(OC)cn2)c1` (stereo not drawn) [CPD-297]: the CC50 at 4 days in series [1] turned out to be 22 µM. The EC50 in series [2] worked out at 6.68 µM; in series [3], 0.57 µM; in series [5], 30 nM.
For `COc1cccc(NC(C(=O)c2cn(S(=O)(=O)C3CCOC3)c3ccccc23)c2ccccc2)c1` (stereo not drawn) [CPD-208], in that order: more than 102 µM, 6.95 µM, 6.65 µM and 370 nM.
The like results for `COc1cccc(NC(C(=O)c2cn(S(C)(=O)=O)c3ccc(F)cc23)c2ccccc2)c1` (stereo not drawn) [CPD-212] were, in that order, more than 110 µM, 2.64 µM, 5.9 µM and 420 nM.
Turning to `COc1cccc(NC(C(=O)c2c[nH]c3ccc(OC)cc23)c2ccccc2)c1` (stereo not drawn) [CPD-092], the CC50 at 4 days in series [1] stood at 19 µM. Also, the results for the EC50 in series [2], in series [3] and in series [5] were 6.73 µM, 0.93 µM and 100 nM, respectively.
Turning to `CCOc1ncc(NC(C(=O)c2c[nH]c3ccccc23)c2ccccc2)cc1OC` (stereo not drawn) [CPD-258], the CC50 at 4 days in series [1] came out at 72 µM. Further, the EC50 was found to be 9.42 µM in series [2] and 1470 nM in series [5].
As to `COc1cccc(NC(C(=O)c2c[nH]c3ncc(F)cc23)c2ccccc2)c1` (stereo not drawn) [CPD-227], in series [1], the CC50 at 4 days was more than 124 µM. Also, the EC50 is 7.45 µM in series [2], 2.91 µM in series [3] and 270 nM in series [5].
In the case of `COc1cc(NC(C(=O)c2c[nH]c3ccccc23)c2ccccc2)ccc1Cl` (stereo not drawn) [CPD-004], the CC50 at 4 days in series [1] came to 11 µM. The figures for the EC50 in series [3], in series [4] and in series [5] were 8.55 µM, 4530 nM and 190 nM, respectively.
The like results for `COc1cccc(NC(C(=O)c2c[nH]c3cc(C)ccc23)c2ccccc2)c1` (stereo not drawn) [CPD-122] were, in that order, 16 µM, 8.25 µM, 3640 nM and 20 nM.
For `COc1cccc(NC(C(=O)c2c[nH]c3ccccc23)c2c(F)cc(C#N)cc2F)c1` (stereo not drawn) [CPD-133], in that order: 19 µM, 4.17 µM, 2250 nM and 40 nM.
`COc1cccc(NC(C(=O)c2cn(CCCO)c3ccccc23)c2ccccc2)c1` (stereo not drawn) [CPD-128] registered a CC50 in series [1] of 63 µM. Besides, the EC50 stood at 18.4 µM in series [3], 7500 nM in series [4] and 560 nM in series [5].
`COc1cccc(NC(C(=O)c2c[nH]c3ccccc23)c2cn3cc(F)ccc3n2)c1` (stereo not drawn) [CPD-110] returned a CC50 at 4 days in series [1] of 73 µM. Also, in series [5], the EC50 turned out to be 580 nM.

The record behind these values is US12012411B2, “Viral replication inhibitors” (Katholieke Universiteit Leuven, priority 2011, dated 2024).
